The source of these data is ChEMBL document CHEMBL5380810, “Scaffold Hybrid of the Natural Product Tanshinone I with Piperidine for the Discovery of a Potent NLRP3 Inflammasome Inhibitor” (J Med Chem, 2023).

Data set [1] relates to Peritoneal macrophage. Put plainly: Cytotoxicity against mouse peritoneal macrophages at 4 uM incubated for 3.5 hrs by MTT assay. The format is toxicity, cell-based.
Data set [2] deals with Peritoneal macrophage. Put plainly: Antiinflammatory activity against LPS-stimulated mouse peritoneal macrophage assessed as TNF-alpha level at 2 uM treated for 3 hrs followed by ATP addition measured after 30 mins by ELISA method relative to control. The class given is functional. The note with it: time 3.5 hrs.
Data set [3] has as its system Peritoneal macrophage. Put plainly: Antiinflammatory activity against LPS-stimulated mouse peritoneal macrophage assessed as IL-6 level at 2 uM treated for 3 hrs followed by ATP addition measured after 30 mins by ELISA method relative to control. The format is functional. The note with it: time 3.5 hrs.
The test system of data set [4] is Peritoneal macrophage. Put plainly: Antiinflammatory activity against LPS-stimulated mouse peritoneal macrophage assessed as IL-1beta level at 2 uM treated for 3 hrs followed by ATP addition measured after 30 mins by ELISA method. The format is functional, cell-based. As to conditions: time 3.5 hrs.
The subject of data set [5] is Peritoneal macrophage. Put plainly: Antiinflammatory activity against LPS-stimulated mouse peritoneal macrophage assessed as inhibition of IL-1beta secretion at 1 uM treated for 3 hrs followed by ATP addition measured after 30 mins by ELISA method. The format is functional, cell-based. As to conditions: time 3.5 hrs.
For data set [6], the target named is NACHT, LRR and PYD domains-containing protein 3 (Mus musculus) (UniProt Q8R4B8). Put plainly: Inhibition of NLRP3 inflammasome activation in LPS-stimulated mouse peritoneal macrophage assessed as inhibition of IL-1beta secretion at 2 uM treated for 3 hrs followed by ATP addition measured after 30 mins by Western blot analysis relative to control. The class given is cell-based. As to conditions: time 3.5 hrs.

Data set [7] shares this target. Put plainly: Inhibition of NLRP3 inflammasome activation in LPS-stimulated mouse peritoneal macrophage assessed as inhibition of caspase-1 secretion at 2 uM treated for 3 hrs followed by ATP addition measured after 30 mins by Western blot analysis relative to control. The class given is cell-based. As to conditions: time 3.5 hrs.
Data set [8] concerns Peritoneal macrophage. Put plainly: Effect on pro-IL-1beta expression in LPS-stimulated mouse peritoneal macrophage at 2 uM treated for 3 hrs followed by ATP addition measured after 30 mins by Western blot analysis. As to conditions: time 3.5 hrs. The class given is functional, cell-based.
The subject of data set [9] is Peritoneal macrophage. Put plainly: Effect on pro-caspase-1 expression in LPS-stimulated mouse peritoneal macrophage at 2 uM treated for 3 hrs followed by ATP addition measured after 30 mins by Western blot analysis. The format is functional, cell-based. As to conditions: time 3.5 hrs.
The target of data set [10] is NACHT, LRR and PYD domains-containing protein 3 (Mus musculus) (UniProt Q8R4B8). Put plainly: Inhibition of NLRP3 inflammasome activation in ATP-induced LPS-primed mouse BMDM cells assessed as inhibition of IL-1beta secretion at 1 uM treated for 3 hrs followed by ATP addition measured after 30 mins by ELISA method. The class given is cell-based. As to conditions: time 3.5 hrs.

The target is the same in data set [11]. Put plainly: Inhibition of NLRP3 inflammasome activation in […] LPS-primed mouse peritoneal macrophage cells assessed as inhibition of IL-1beta secretion at 2 uM treated for 3 hrs followed by nigericin addition measured after 30 mins by ELISA method. The class given is cell-based. The note with it: time 3.5 hrs.
The target is the same in data set [12]. Put plainly: Inhibition of NLRP3 inflammasome activation in […] LPS-primed mouse peritoneal macrophage cells assessed as inhibition of IL-1beta secretion at 2 uM treated for 3 hrs followed by MSU addition measured after 30 mins by ELISA method. The format is cell-based. The note with it: time 3.5 hrs.
For data set [13], the system named is Peritoneal macrophage. Put plainly: Effect on ASC expression in ATP-induced LPS-primed mouse peritoneal macrophage cells at 2 uM treated for 3 hrs followed by ATP addition measured after 30 mins by Western blot analysis. The class given is functional, cell-based. As to conditions: time 3.5 hrs.
The subject of data set [14] is Peritoneal macrophage. Put plainly: Effect on NLRP3 expression in ATP-induced LPS-primed mouse peritoneal macrophage cells at 2 uM treated for 3 hrs followed by ATP addition measured after 30 mins by Western blot analysis. The format is functional, cell-based. As to conditions: time 3.5 hrs.
The subject of data set [15] is Peritoneal macrophage. Put plainly: Effect on pro-caspase-1 expression in ATP-induced LPS-primed mouse peritoneal macrophage cells at 2 uM treated for 3 hrs followed by ATP addition measured after 30 mins by Western blot analysis. The note with it: time 3.5 hrs. The format is functional, cell-based.
Data set [16] concerns Peritoneal macrophage. Put plainly: Effect on pro-IL-1beta expression in ATP-induced LPS-primed mouse peritoneal macrophage cells at 2 uM treated for 3 hrs followed by ATP addition measured after 30 mins by Western blot analysis. The class given is functional, cell-based. As to conditions: time 3.5 hrs.
The subject of data set [17] is Mus musculus. Put plainly: Antiinflammatory activity in septic C57BL/6 mouse model assessed as decrease in LPS-induced IL-1beta release at 50 mg/kg, ip pretreated for 42 hrs followed by LPS injection measured after 6 hrs by ELISA method. The format is functional, organism-based. The note with it: time 48.0 hrs.
Data set [18] deals with Mus musculus. Put plainly: Antiinflammatory activity in septic C57BL/6 mouse model assessed as decrease in LPS-induced IL-6 release at 50 mg/kg, ip pretreated for 42 hrs followed by LPS injection measured after 6 hrs by ELISA method. As to conditions: time 48.0 hrs. The format is functional, organism-based.
Data set [19] has as its system Mus musculus. Put plainly: Antiinflammatory activity in septic C57BL/6 mouse model assessed as reduction in LPS-induced alveolar wall thickening at 50 mg/kg, ip pretreated for 42 hrs followed by LPS injection measured after 6 hrs by H and E staining based analysis. The format is functional, organism-based. The note with it: time 48.0 hrs.
Data set [20] deals with Mus musculus. Put plainly: Antiinflammatory activity in septic C57BL/6 mouse model assessed as reduction in LPS-induced granulocyte count at 50 mg/kg, ip pretreated for 42 hrs followed by LPS injection measured after 6 hrs by H and E staining based analysis. The class given is functional, organism-based. The note with it: time 48.0 hrs.
The test system of data set [21] is Mus musculus. Put plainly: Antiinflammatory activity in septic C57BL/6 mouse model assessed as reduction in LPS-induced inflammatory infiltration at 50 mg/kg, ip pretreated for 42 hrs followed by LPS injection measured after 6 hrs by H and E staining based analysis. The class given is functional, organism-based. As to conditions: time 48.0 hrs.
The target in data set [22] is NACHT, LRR and PYD domains-containing protein 3 (Homo sapiens) (UniProt Q96P20). Put plainly: Inhibition of NLRP3 (unknown origin) degradation at 10 uM incubated for 5 hrs followed by heat treatment for 3 mins by CETSA assay. As to conditions: time 5.03 hrs.
For data set [23], the system named is Peritoneal macrophage. Put plainly: Antiinflammatory activity against LPS-stimulated mouse peritoneal macrophage assessed as IL-1beta level at 2 uM treated for 3 hrs followed by ATP addition measured after 30 mins by ELISA method relative to control. The class given is functional. As to conditions: time 3.5 hrs.
Data set [24] has as its system Peritoneal macrophage. Put plainly: Antiinflammatory activity against LPS-stimulated mouse peritoneal macrophage assessed as inhibition of IL-1beta secretion treated for 3 hrs followed by ATP addition measured after 30 mins by ELISA method. The format is functional, cell-based.
In data set [25] the target is NACHT, LRR and PYD domains-containing protein 3 (Mus musculus, UniProt Q8R4B8). Put plainly: Binding affinity to CMS sensor chip immobilized His-SUMO-tagged mouse NLRP3 expressed in Escherichia coli assessed as dissociation constant by SPR analysis.
The nature of data set [26]: Aqueous solubility of compound incubated for 24 hrs by HPLC analysis. The class given is physicochemical. The note with it: buffer.
A short description of data set [27]: Metabolic stability in human liver microsomes assessed as half life at 20 uM measured upto 120 mins in presence of NADPH by LC-MS/MS analysis. The class given is ADME, Microsome.
A short description of data set [28]: Metabolic stability in mouse liver microsomes assessed as half life at 20 uM measured upto 120 mins in presence of NADPH by LC-MS/MS analysis. The format is ADME, Microsome.
Data set [29] is described as follows: Metabolic stability in human liver microsomes assessed as intrinsic clearance at 20 uM measured upto 120 mins in presence of NADPH by LC-MS/MS analysis. The format is ADME, Microsome. As to conditions: read-out: CLH.
Data set [30] in a line: Metabolic stability in mouse liver microsomes assessed as intrinsic clearance at 20 uM measured upto 120 mins in presence of NADPH by LC-MS/MS analysis. The class given is ADME, Microsome. The note with it: read-out: CLH.
Data set [31] relates to Peritoneal macrophage. Put plainly: Antiinflammatory activity against LPS-stimulated mouse peritoneal macrophage assessed as IL-6 level at 2 uM treated for 3 hrs followed by ATP addition measured after 30 mins by ELISA method. As to conditions: time 3.5 hrs. The format is functional, cell-based.

Converted amounts (≈) assume the structure as drawn. The source made the active and inactive calls. No cut-off for these calls is given here.

Sequence of NACHT, LRR and PYD domains-containing protein 3 (Mus musculus) (Q8R4B8 whole entry, the tested form may be a part): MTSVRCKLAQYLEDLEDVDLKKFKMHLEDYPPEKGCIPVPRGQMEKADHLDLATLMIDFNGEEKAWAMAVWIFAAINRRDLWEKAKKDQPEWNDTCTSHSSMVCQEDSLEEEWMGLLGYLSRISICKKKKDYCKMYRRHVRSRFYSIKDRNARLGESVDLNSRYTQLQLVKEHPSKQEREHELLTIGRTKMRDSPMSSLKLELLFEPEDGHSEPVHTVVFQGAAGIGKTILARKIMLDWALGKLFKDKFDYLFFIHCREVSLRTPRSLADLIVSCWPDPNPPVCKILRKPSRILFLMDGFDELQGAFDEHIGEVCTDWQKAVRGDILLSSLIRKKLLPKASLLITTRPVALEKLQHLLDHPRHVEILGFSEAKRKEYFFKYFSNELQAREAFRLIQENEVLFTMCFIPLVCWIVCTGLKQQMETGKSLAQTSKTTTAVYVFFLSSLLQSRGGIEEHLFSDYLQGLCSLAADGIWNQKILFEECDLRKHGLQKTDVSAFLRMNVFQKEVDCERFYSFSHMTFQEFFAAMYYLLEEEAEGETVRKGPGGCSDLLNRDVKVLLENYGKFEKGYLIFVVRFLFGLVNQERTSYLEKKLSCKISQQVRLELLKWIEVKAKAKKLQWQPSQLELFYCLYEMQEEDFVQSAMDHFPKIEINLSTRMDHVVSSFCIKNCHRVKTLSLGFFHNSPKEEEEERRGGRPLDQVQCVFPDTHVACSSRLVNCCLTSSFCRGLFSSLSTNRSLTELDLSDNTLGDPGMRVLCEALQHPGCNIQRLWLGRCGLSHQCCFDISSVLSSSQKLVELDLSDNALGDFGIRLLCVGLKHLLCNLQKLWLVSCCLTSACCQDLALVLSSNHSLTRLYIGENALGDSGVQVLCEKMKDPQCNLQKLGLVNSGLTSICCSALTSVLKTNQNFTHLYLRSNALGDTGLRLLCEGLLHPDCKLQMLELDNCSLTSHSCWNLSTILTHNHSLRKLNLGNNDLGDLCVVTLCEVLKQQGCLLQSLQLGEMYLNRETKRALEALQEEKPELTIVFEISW
Sequence of NACHT, LRR and PYD domains-containing protein 3 (Homo sapiens) (Q96P20 whole entry, the tested form may be a part): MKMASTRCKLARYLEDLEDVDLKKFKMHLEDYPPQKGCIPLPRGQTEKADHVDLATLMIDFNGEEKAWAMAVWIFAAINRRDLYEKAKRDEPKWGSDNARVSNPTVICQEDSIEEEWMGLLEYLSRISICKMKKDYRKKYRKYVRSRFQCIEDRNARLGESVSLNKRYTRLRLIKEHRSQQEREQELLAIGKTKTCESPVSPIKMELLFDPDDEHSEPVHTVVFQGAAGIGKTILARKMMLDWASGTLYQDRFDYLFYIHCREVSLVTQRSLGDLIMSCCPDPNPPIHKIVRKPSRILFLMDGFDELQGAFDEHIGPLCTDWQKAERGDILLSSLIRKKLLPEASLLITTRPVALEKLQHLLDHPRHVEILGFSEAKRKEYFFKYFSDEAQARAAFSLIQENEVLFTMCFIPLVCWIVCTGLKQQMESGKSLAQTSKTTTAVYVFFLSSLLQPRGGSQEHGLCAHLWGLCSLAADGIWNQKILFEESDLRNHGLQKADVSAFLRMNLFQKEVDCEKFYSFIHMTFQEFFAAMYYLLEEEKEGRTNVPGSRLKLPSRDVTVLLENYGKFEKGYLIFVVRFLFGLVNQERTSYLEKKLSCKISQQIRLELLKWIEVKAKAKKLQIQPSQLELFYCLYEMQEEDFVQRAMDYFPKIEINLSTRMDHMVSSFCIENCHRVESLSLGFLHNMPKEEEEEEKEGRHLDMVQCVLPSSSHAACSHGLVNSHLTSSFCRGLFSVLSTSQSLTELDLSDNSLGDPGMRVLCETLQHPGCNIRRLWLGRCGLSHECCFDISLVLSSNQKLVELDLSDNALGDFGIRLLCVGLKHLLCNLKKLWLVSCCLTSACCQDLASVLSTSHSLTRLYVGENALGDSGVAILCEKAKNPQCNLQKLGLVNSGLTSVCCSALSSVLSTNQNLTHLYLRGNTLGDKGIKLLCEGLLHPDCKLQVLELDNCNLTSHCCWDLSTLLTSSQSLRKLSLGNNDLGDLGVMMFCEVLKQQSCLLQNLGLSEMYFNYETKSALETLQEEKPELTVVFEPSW
Sequence of NACHT, LRR and PYD domains-containing protein 3 (Q8R4B8 whole entry, the tested form may be a part): as the sequence (Q8R4B8 whole entry, the tested form may be a part) above

Turning to `Cc1coc2c1C(=O)C(=O)c1c-2ccc2c1CCCC2(C)C` [TANSHINONE IIA], the Activity entry in data set [1] is “Non-Toxic”; in data set [2], 19%; in data set [3], 16%. Besides, in [4], the result was inactive.
`Cc1cccc2c3c(ccc12)-c1oc2c(c1C(=O)C3=O)CCN([C@H](CO)CCCO)C2`: the inhibition entry in data set [5], in data set [10], in data set [11] and in data set [12] was “Active” throughout. The inhibition in [6] and in [7] was 100% each time. In addition, the outcome in data set [8], in data set [9], in data set [13], in [14], in [15] and in data set [16] was inactive. The outcome in data set [17], in data set [18], in data set [19], in data set [20] and in [21] was Active.
As for `Cc1cccc2c3c(ccc12)-c1oc2c(c1C(=O)C3=O)CCN(CCCN1CCOCC1)C2` [listing 1 of 2 here], the inhibition result in [5], in data set [10], in [11], in data set [12] and in data set [22] was “Active” each time. Also, the inhibition in [6] and in data set [7] was 100% each time. Further, the result in data set [8], in [9], in [13], in data set [14], in [15] and in [16] was inactive. Further, the result in data set [17], in [18], in data set [19], in data set [20] and in [21] was Active.
On to `Cc1cccc2c3c(ccc12)-c1oc2c(c1C(=O)C3=O)CCN(CCCN1CCOCC1)C2` [listing 2 of 2 here], for which the figures for the Activity result in [1], in [2] and in data set [23] were “Non-Toxic”, 41% and 97%, respectively. Also, the IC50 in data set [24] was 0.131 µM. Besides, the Kd in data set [25] worked out at 5.87 µM. In addition, in data set [26], the solubility was 0.03 µg/mL (≈ 0.0675 µM). Besides, the half-life at 20 µM was determined as 14.4 h in data set [27] and 3.04 h in data set [28]. The microsomal CLint at 20 µM amounted to 1.6 µL/min/mg in data set [29] and 7.6 µL/min/mg in data set [30].
For the compound `Cc1cccc2c3c(ccc12)-c1oc2c(c1C(=O)C3=O)CCN(CCO)C2`, the outcome in [31], in data set [8], in [9], in data set [13], in data set [14] and in data set [15] was inactive. Moreover, in [16], the result was inactive. For the same compound, the inhibition entry in data set [5], in data set [10], in data set [11] and in [12] was “Active” each time. For the same compound, the inhibition in data set [6] and in [7] was 100% in each case. Also, the result in data set [17], in data set [18], in data set [19], in data set [20] and in [21] was Active.
